Where “and” joins values, the source holds several entries; their conditions need not be identical. Identical values can stand only once.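 Protocol summary: plate cells (96-well), add compound at 5 concentrations, incubate 48 h, interpolate endpoints linearly. The concentration for 50% growth inhibition is given as GI50. TGI: concentration producing complete growth inhibition.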
What was measured:
Test in all cases: NCI tumour cell line growth inhibition, 48 h
786-0 renal = tested on: 786-0 renal
A549 NSCLC = tested on: A549 NSCLC
DU-145 prostate = tested on: DU-145 prostate
HT29 colon = tested on: HT29 colon
KM12 colon = tested on: KM12 colon
MCF7 breast = tested on: MCF7 breast
OVCAR-8 ovarian = tested on: OVCAR-8 ovarian
RPMI-8226 leukemia = tested on: RPMI-8226 leukemia
SNB-75 CNS = tested on: SNB-75 CNS
HCC-2998 colon = tested on: HCC-2998 colon

Compound	TGI (786-0 renal)	TGI (A549 NSCLC) [µM]	TGI (DU-145 prostate)	TGI (HT29 colon) [µM]	TGI (KM12 colon)	TGI (MCF7 breast) [µM]	TGI (OVCAR-8 ovarian) [µM]	TGI (RPMI-8226 leukemia) [µM]	TGI (SNB-75 CNS) [µM]	TGI (HCC-2998 colon) [µM]	GI50 (786-0 renal)	GI50 (A549 NSCLC) [µM]	GI50 (HCC-2998 colon) [µM]	GI50 (HT29 colon) [µM]	GI50 (KM12 colon)	GI50 (MCF7 breast) [µM]	GI50 (RPMI-8226 leukemia) [µM]	GI50 (SNB-75 CNS) [µM]	GI50 (DU-145 prostate) [µM]	GI50 (OVCAR-8 ovarian) [µM]
CSc1nc2cc(S(=O)(=O)N3CCCCC3)ccc2s1	> 100 µM	> 100	> 100 µM	> 100	> 100 µM	> 100	> 100	> 100	> 100	–	–	–	–	–	–	–	–	–	–	–
Cc1nc2ccccc2c(=O)n1-c1ccccc1F	> 100 µM	> 100	–	> 100	> 100 µM	–	> 100	–	> 100	> 100	–	–	–	–	–	–	–	–	–	–
CCCS(=O)(=O)/C(=C(\c1ccc(Br)cc1)S(=O)(=O)CCC)c1ccc(Br)cc1	> 10 µM	> 10	–	> 10	> 10 µM	–	> 10	> 10	> 10	> 10	–	–	–	–	–	–	–	–	–	–
COC(=O)C(=Cc1cc(OC)c(OC)c(OC)c1-c1cc2c(cc1C(C)=O)OCO2)C(=O)OC	61.6 µM	165	–	77	70.4 µM	–	> 211	> 211	–	70.4	–	–	–	–	–	–	–	–	–	–
COc1ccc(-n2cc(-c3cc(OC)c(OC)c(OC)c3)[nH]c2=O)cc1Cl	> 100 µM	> 100	–	> 100	> 100 µM	> 100	–	> 100	28.8	> 100	27.7 µM	> 100	> 100	> 100	> 100 µM	> 100	> 100	6.69	–	–
C/C(=C1/CCC/C(=C(/C)c2ccccc2)C1=O)c1ccccc1	> 100 µM	> 100	–	86.8	> 100 µM	–	> 100	> 100	> 100	> 100	–	–	–	–	–	–	–	–	–	–
CCCCCCC(=O)C/C(=N/NC(N)=S)C(=O)NC1C2CC3CC(C2)CC1C3 (stereo not given)	> 100 µM	> 100	–	> 100	> 100 µM	–	> 100	> 100	> 100	> 100	–	–	–	–	–	–	–	–	–	–
COc1cccc(N2C(=O)[C@H]3CC(C)c4c([nH]c5ccccc45)[C@H]3C2=O)c1 (stereo not given in full)	50.5 µM	> 100	–	> 100	> 100 µM	–	> 100	> 100	42.1	> 100	–	–	–	–	–	–	–	–	–	–
CC(C)CCCC(=O)CCCCCCC(=O)CCN(O)C(=O)C(N)CO (stereo not given)	36.2 µM	–	37.4 µM	43.5	35.9 µM	44.7	39.3	57.5	31.1	–	–	–	–	–	–	–	–	–	–	–
NCCCn1c2c(c3ccc([N+](=O)[O-])cc3c1=O)C(=O)c1cc(Br)ccc1-2	0.173 µM and 0.387 µM	0.245	0.00873 µM and 0.0121 µM	0.134	0.353 µM and 0.191 µM	0.0696	0.188	–	0.0298	–	0.0435 µM and 0.0643 µM	0.0897	0.154	0.00556	0.0834 µM and 0.0185 µM	–	–	0.00281	0.00205	0.0271
